In patent US20030216416A1, “Novel crystalline of n-[4-[2-(2-amino-4,7-dihydro-4oxo-3h-pyrrolo[2,3-d]pyrimidin-5-yl)ethyl]benzoyl]-l-glutamic acid and process therefor” (priority 2002, published 2003):

How the values were obtained:
[1] = Stability study: total related substances of crystalline form lots on storage
[2] = Stability study: solvents (water) content of crystalline form lots on storage
[3] = heptahydrate lot stored at 5° C.
[4] = heptahydrate lot, 25° C./60% relative humidity and room temperature/uncontrolled humidity
[5] = 2.5 hydrate lots stored at 5° C.
[6] = accelerated conditions 30° C., 0 months
[7] = accelerated conditions 30° C., 1 month
[8] = accelerated conditions 30° C., 2 months
[9] = accelerated conditions 30° C., 3 months
[10] = accelerated conditions 30° C., 6 months
[11] = stored at 5° C., 0 months, lots A-C water and ethanol, lot D water only

SMILES: Nc1nc2[nH]cc(CCc3ccc(C(=O)N[C@@H](CCC(=O)[O-])C(=O)[O-])cc3)c2c(=O)[nH]1.[Na+].[Na+] [Heptahydrate Lot, disodium N-[4-[2-(2-amino-4,7-dihydro-4-oxo-3H-pyrrolo[2,3-d]-pyrimidin-5-yl)ethyl]benzoyl]-L-glutamic acid salt]
- Total Related Substances Results ([1]; 5 C., 0 mo.): 0.41%
- Total Related Substances Results ([1]; 5 C., 0.5 mo.): 0.42%
- Total Related Substances Results ([1]; 5 C., 1 mo.): 0.43%
- Total Related Substances Results ([1]; 5 C., 2 mo.): 0.45%
- Total Related Substances Results ([1]; 5 C., 3 mo.): 0.42%
- Total Related Substances Results ([1]; 5 C., 6 mo.): 0.42%
- Total Related Substances Results ([1]; 5 C., 9 mo.): 0.40%
- Total Related Substances Results ([1]; 5 C., 12 mo.): 0.42%
- Total Related Substances Results ([1]; 25 C./60% RH, 0 mo.): 0.41%
- Total Related Substances Results ([1]; 25 C./60% RH, 0.25 mo.): 0.40%
- Total Related Substances Results ([1]; 25 C./60% RH, 0.5 mo.): 0.44%
- Total Related Substances Results ([1]; 25 C./60% RH, 0.75 mo.): 0.39%
- Total Related Substances Results ([1]; 25 C./60% RH, 1 mo.): 0.43%
- Total Related Substances Results ([1]; 25 C./60% RH, 3 mo.): 0.42%
- Total Related Substances Results ([1]; 25 C./60% RH, 6 mo.): 0.42%
- Total Related Substances Results ([1]; 25 C./60% RH, 12 mo.): 0.39%
- Total Related Substances Results ([1]; RT/uncontrolled, 0 mo.): 0.41%
- Total Related Substances Results ([1]; RT/uncontrolled, 0.25 mo.): 0.40%
- Total Related Substances Results ([1]; RT/uncontrolled, 0.5 mo.): 0.43%
- Total Related Substances Results ([1]; RT/uncontrolled, 0.75 mo.): 0.41%
- Total Related Substances Results ([1]; RT/uncontrolled, 1 mo.): 0.43%
- Total Related Substances Results ([1]; RT/uncontrolled, 2 mo.): 0.44%
- Total Related Substances Results ([1]; RT/uncontrolled, 3 mo.): 0.42%
- change in the percent total related substances over time [1, 3]: did not change significantly over time
- change in the percent total related substances over time ([1]; heptahydrate lot stored at accelerated conditions): did not change significantly over time
- Solvents (Water) Results ([2]; 5° C., time 0): 21.0%
- Solvents (Water) Results ([2]; 5° C., time 0.5): 21.0%
- Solvents (Water) Results ([2]; 5° C., time 1): 20.6%
- Solvents (Water) Results ([2]; 5° C., time 2): 21.1%
- Solvents (Water) Results ([2]; 5° C., time 3): 21.3%
- Solvents (Water) Results ([2]; 5° C., time 6): 21.1%
- Solvents (Water) Results ([2]; 5° C., time 9): 21.1%
- Solvents (Water) Results ([2]; 5° C., time 12): 21.9%
- Solvents (Water) Results ([2]; 25° C./60% RH, time 0): 21.0%
- Solvents (Water) Results ([2]; 25° C./60% RH, time 0.25): 21.1%
- Solvents (Water) Results ([2]; 25° C./60% RH, time 0.5): 21.1%
- Solvents (Water) Results ([2]; 25° C./60% RH, time 0.75): 20.1%
- Solvents (Water) Results ([2]; 25° C./60% RH, time 1): 20.1%
- Solvents (Water) Results ([2]; 25° C./60% RH, time 3): 20.7%
- Solvents (Water) Results ([2]; 25° C./60% RH, time 6): 21.3%
- Solvents (Water) Results ([2]; 25° C./60% RH, time 12): 21.7%
- Solvents (Water) Results ([2]; RT/uncontrolled RH, time 0): 21.0%
- Solvents (Water) Results ([2]; RT/uncontrolled RH, time 0.25): 21.3%
- Solvents (Water) Results ([2]; RT/uncontrolled RH, time 0.5): 20.8%
- Solvents (Water) Results ([2]; RT/uncontrolled RH, time 0.75): 20.6%
- Solvents (Water) Results ([2]; RT/uncontrolled RH, time 1): 20.6%
- Solvents (Water) Results ([2]; RT/uncontrolled RH, time 2): 21.1%
- Solvents (Water) Results ([2]; RT/uncontrolled RH, time 3): 21.1%
- change in water content over time [2, 3]: does not change significantly over time
- water content [2, 3]: approximately 21%
- change in water content over time [2, 4]: does not change significantly over time
- water content [2, 4]: approximately 21%

SMILES: Nc1nc2[nH]cc(CCc3ccc(C(=O)N[C@@H](CCC(=O)O)C(=O)O)cc3)c2c(=O)[nH]1 [Lot A, pemetrexed disodium]
- change in the percent total related substances over time [1, 5]: did not change significantly over time
- change in the percent total related substances over time ([1]; accelerated conditions 30° C.): did change significantly over time
- Total Related Substances Results [1, 6]: 0.24% of Total
- Total Related Substances Results [1, 7]: 0.35% of Total
- Total Related Substances Results [1, 8]: 0.41% of Total
- Total Related Substances Results [1, 9]: 0.6% of Total
- Total Related Substances Results [1, 10]: 1.1% of Total
- Total Related Substances Results ([1]; stored at 5° C., 0 months): 0.24% of Total
- Total Related Substances Results ([1]; stored at 5° C., 3 months): 0.26% of Total
- Total Related Substances Results ([1]; stored at 5° C., 6 months): 0.27% of Total
- Total Related Substances Results ([1]; stored at 5° C., 12 months): 0.28% of Total
- Total Related Substances Results ([1]; stored at 5° C., 18 months): 0.4% of Total
- Total Related Substances Results ([1]; stored at 5° C., 24 months): 0.4% of Total
- Solvents Results [2, 6]: 10.2% of Total
- Solvents Results [2, 7]: 10.9% of Total
- Solvents Results [2, 8]: 10.6% of Total
- Solvents Results [2, 9]: 10.7% of Total
- Solvents Results [2, 10]: 9.3% of Total
- Solvents Results [2, 11]: 10.2% of Total
- Solvents Results ([2]; stored at 5° C., 3 months): 22.0% of Total
- Solvents Results ([2]; stored at 5° C., 6 months): 21.1% of Total
- Solvents Results ([2]; stored at 5° C., 12 months): 21.5% of Total
- Solvents Results ([2]; stored at 5° C., 18 months): 22.3% of Total
- Solvents Results ([2]; stored at 5° C., 24 months): 21.1% of Total

SMILES: Nc1nc2[nH]cc(CCc3ccc(C(=O)N[C@@H](CCC(=O)O)C(=O)O)cc3)c2c(=O)[nH]1 [Lot B, pemetrexed disodium]
- change in the percent total related substances over time [1, 5]: did not change significantly over time
- change in the percent total related substances over time ([1]; accelerated conditions 30° C.): did change significantly over time
- Total Related Substances Results [1, 6]: 0.4% of Total
- Total Related Substances Results [1, 7]: 0.4% of Total
- Total Related Substances Results [1, 8]: 0.7% of Total
- Total Related Substances Results [1, 9]: 0.6% of Total
- Total Related Substances Results [1, 10]: 1.2% of Total
- Total Related Substances Results ([1]; stored at 5° C., 0 months): 0.4% of Total
- Total Related Substances Results ([1]; stored at 5° C., 3 months): 0.3% of Total
- Total Related Substances Results ([1]; stored at 5° C., 6 months): 0.5% of Total
- Total Related Substances Results ([1]; stored at 5° C., 12 months): 0.4% of Total
- Solvents Results [2, 6]: 11.0% of Total
- Solvents Results [2, 7]: 15.5% of Total
- Solvents Results [2, 8]: 12.9% of Total
- Solvents Results [2, 9]: 11.5% of Total
- Solvents Results [2, 10]: 11.2% of Total
- Solvents Results [2, 11]: 11.0% of Total
- Solvents Results ([2]; stored at 5° C., 3 months): 21.0% of Total
- Solvents Results ([2]; stored at 5° C., 6 months): 21.1% of Total
- Solvents Results ([2]; stored at 5° C., 12 months): 21.0% of Total

SMILES: Nc1nc2[nH]cc(CCc3ccc(C(=O)N[C@@H](CCC(=O)O)C(=O)O)cc3)c2c(=O)[nH]1 [Lot C, pemetrexed disodium]
- change in the percent total related substances over time [1, 5]: did increase somewhat over time
- change in the percent total related substances over time ([1]; accelerated conditions 30° C.): did change significantly over time
- Total Related Substances Results [1, 6]: 0.38% of Total
- Total Related Substances Results [1, 7]: 0.6% of Total
- Total Related Substances Results [1, 8]: 0.76% of Total
- Total Related Substances Results [1, 9]: 0.79% of Total
- Total Related Substances Results [1, 10]: 1.33% of Total
- Total Related Substances Results ([1]; stored at 5° C., 0 months): 0.38% of Total
- Total Related Substances Results ([1]; stored at 5° C., 3 months): 0.79% of Total
- Total Related Substances Results ([1]; stored at 5° C., 6 months): 0.79% of Total
- Total Related Substances Results ([1]; stored at 5° C., 12 months): 0.51% of Total
- Total Related Substances Results ([1]; stored at 5° C., 18 months): 0.43% of Total
- Total Related Substances Results ([1]; stored at 5° C., 24 months): 0.44% of Total
- Solvents Results [2, 6]: 8.8% of Total
- Solvents Results [2, 7]: 20.6% of Total
- Solvents Results [2, 8]: 19.3% of Total
- Solvents Results [2, 9]: 17.2% of Total
- Solvents Results [2, 10]: 8.9% of Total
- Solvents Results [2, 11]: 8.8% of Total
- Solvents Results ([2]; stored at 5° C., 3 months): 16.7% of Total
- Solvents Results ([2]; stored at 5° C., 6 months): 8.8% of Total
- Solvents Results ([2]; stored at 5° C., 12 months): 21.0% of Total
- Solvents Results ([2]; stored at 5° C., 18 months): 20.8% of Total
- Solvents Results ([2]; stored at 5° C., 24 months): 20.4% of Total
